Results reported in patent publication US20190352691A1, “PATHOGEN DETECTION” (priority 2013, published 2019).

Tests used:
Mtb = assay: anti-tuberculosis activity (whole cell); format: cell-based, Mycobacterium tuberculosis
A. baumannii ATCC 17691 = conditions: cited from earlier work

For `C[C@@H]1CC[C@H]2[C@@H](C)C(=O)O[C@@H]3O[C@@]4(C)CC[C@@H]1[C@]32OO4` [artemisinin], the activity against tuberculosis (Mtb) was “not active”.

In the case of `N[C@@H](C(=O)N[C@@H]1C(=O)N2C(C(=O)O)=C(Cl)CC[C@H]12)c1ccccc1` [Lorabid], the “activity against Acinetobacter baumannii” value (A. baumannii ATCC 17691) is given as “not active”.
